# Laboratory results as given in patent publication US9637447B2, “Lauflumide and the enantiomers thereof, method for preparing same and therapeutic uses thereof” (priority 2011, dated 2017).
# Read-outs that look alike come from different tables or passages of the source.
# Key:
# [1] = test system: young Wistar rats; assay: T-maze test of waiting ability (ADHD model, impulsivity); format: in vivo, rat; conditions: for improving waiting ability, effectiveness versus methylphenidate and d-amphetamine / improving waiting ability, effectiveness versus modafinil: T-maze; for improving waiting ability, effectiveness versus methylphenidate and d-amphetamine: methylphenidate 3 mg/kg, d-amphetamine 1 mg/kg intraperitoneally; for improving waiting ability, effectiveness versus modafinil: modafinil 64 and 128 mg/kg orally; for waiting ability in the T-maze test compared to the control: administered before the test, mazindol 1, 3, 10 mg/kg intraperitoneally, lauflumide 64, 128 mg/kg orally, D-lauflumide 64, 128, 256 mg/kg orally
# Source text: The test of waiting ability in a T-maze consists in offering a rat a choice between a quick and immediate food reward and a large but delayed reward. In adult Wistar rats, numerous antidepressants such as serotonin or noradrenalin reuptake inhibitors increase the number of choices for the large but delayed reward, indicating an improvement in waiting ability, i.e., a decrease in impulsivity.
# The goal of the present study is to examine whether lauflumide in the form of its racemic mixture or its D form ((+) enantiomer), administered in 3 doses before the test, improves waiting ability in young Wistar rats subjected to the T-maze test. An improvement in waiting ability by this compound would indicate that this compound reduces impulsivity and, consequently, could be useful in the treatment of ADHD. Methylphenidate and d-amphetamine are used as a reference product in the same experiment.
# Male Wistar AF rats (Centre d′Elevage Rene Janvier, France) are used, aged 22 days at the beginning of the experiment and between 30 and 42 days at the time the molecules are administered.
# The experiments were carried out in two identical T-mazes (FIG. 1) made of opaque gray plastic tubes (inner diameter: 7.5 cm), consisting of a starting alley (30 cm long), a transparent plastic box, (10 cm wide, 10 cm deep and 10 cm high) and two arms (35 cm long) each leading to a rectangular black plastic box (18 cm wide, 30 cm deep, 10 cm high). The removable, gray plastic guillotine doors can be inserted in vertical slots located at the entrance to the starting alley and at the end of each arm. One of the goal boxes (left or right, depending on the rat) is continuously provided with a large reward, the other with a small reward. The large and small rewards consist of 5 and 1 pellets, respectively (20 mg, Technical & Scientific Equipment GMBH, Germany). The pellets are placed in a translucent cup before each test.
# The T-maze test is a validated test which makes it possible, by extrapolation to man, to verify the effectiveness of pharmacological agents effective in ADHD.
# 1st phase: habituation. The animals are first subjected to 2 to 6 habituation sessions of 5 minutes each. The rat is gently placed in the starting alley, which is then closed off by a guillotine door inserted in the slot (reference c0 in FIG. 1). The animal is allowed to freely explore the device and to eat the rewards placed in the cups.
# 2nd phase: pre-training. A door is placed in slot c2 near each goal box and then the rat is placed in the starting alley. When it enters one of the two arms, a door is inserted behind it in slot c1 near the choice point and the door placed in slot c2 is removed. Once the animal enters the goal box, the door is replaced in slot c2. The rat is removed from the goal box as soon as it eats the pellets. The animal is then returned to its cage for 2 to 3 minutes. One to three times per day, each rat is subjected to five test sessions. In four to 12 sessions, the rat chooses the arm leading to the large reward in more than 80% of the tests. The training phase then begins.
# 3rd phase: training. During training the rats 1 to 4 times/day undergo sessions of 5 tests during which a delay is introduced before access to the large reward is granted. After a door is placed in slot c2 near each goal box, the rat is placed in the starting alley. When it enters one of the two arms, a second door is inserted behind it in slot c1 near the choice point, so that the rat choosing the training arm with the large reward can be held in this arm for 30 seconds—the waiting period—before having access to the reinforcement. If not, if the animal chooses the arm leading to the small reward, the door placed in slot c2 is immediately removed, allowing the animal to enter the goal box. The testing of the drugs begins when the animal chooses the large reward delayed by 30 seconds in 2 tests in 5 (or fewer) during two consecutive sessions and in 1 test in 5 (or fewer) in the following session. […]
# [2] = Comparative effectiveness stated in the description (no method given)
# [3] = test system: young Wistar rats; conditions: cited from earlier work; for waiting ability in the T-maze test: young rats
structure (smiles),measurement,setting,value
NC(=O)C[S@@+]([O-])C(c1ccc(F)cc1)c1ccc(F)cc1 [D-Lauflumide],"improving waiting ability, effectiveness versus methylphenidate and d-amphetamine",[1],at least as effective as methylphenidate and d-amphetamine
same,"improving waiting ability, effectiveness versus modafinil",[1],more effective than modafinil
same,waiting ability in the T-maze test compared to the control,[1],improve waiting ability
same,effectiveness versus the racemic mixture of lauflumide,[2],more effective than the racemic mixture of lauflumide
"CC(N)Cc1ccccc1 (racemic) [amphetamine, D,L-amphetamine]",waiting ability in the T-maze test,[3],improved waiting ability
CNCCCN1c2ccccc2CCc2ccccc21 [desipramine],waiting ability in the T-maze test,[3],improved waiting ability
COC(=O)C(c1ccccc1)C1CCCCN1 (centres unmarked) [methylphenidate],number of choices for the large but delayed reward,"[3]; adult Wistar rats, spontaneously hypertensive rats (SHR) and Wistar Kyoto (WKY) rats",not
same,number of choices for the large but delayed reward,[3]; young Wistar rats,increases the number of choices for the large but delayed reward
same,waiting ability in the T-maze test,[3],improved waiting ability
CNCC[C@@H](Oc1ccccc1C)c1ccccc1 [atomoxetine],waiting ability in the T-maze test,[3],improved waiting ability
NC(=O)C[S+]([O-])C(c1ccc(F)cc1)c1ccc(F)cc1 (racemic) [Lauflumide],waiting ability in the T-maze test compared to the control,[1],improve waiting ability
same,effectiveness relative to adrafinil,[2],20 times
same,effectiveness relative to modafinil,[2],4 times
"OC1(c2ccc(Cl)cc2)c2ccccc2C2=NCCN21 (centres unmarked) [Mazindol, mazindol]","improving waiting ability, effectiveness versus methylphenidate and d-amphetamine",[1],at least as effective as methylphenidate and d-amphetamine
same,"improving waiting ability, effectiveness versus modafinil",[1],more effective than modafinil
same,waiting ability in the T-maze test compared to the control,[1],improve waiting ability
Clc1cccc(Cl)c1N=C1NCCN1 [clonidine],waiting ability in the T-maze test,[3],improved waiting ability
